From US6825223B2, “Anilide compounds and pharmaceutical compositions comprising them” (Kowa Company, Ltd., priority 1996, dated 2004)

Columns and labels:
[1] = target: ACAT (blood vessel wall-derived enzyme) (Oryctolagus cuniculus, UniProt G1SUQ0); assay: ACAT inhibiting activity, blood vessel wall-derived enzyme liquid (thoracoaorta microsomes); type: biochemical, rabbit; details: microsomes from thoracoaorta of rabbits fed 1% cholesterol feed; 14C-oleoyl-CoA; 37° C. 5 minutes
Experimental: (§1) Rabbits were fed with 1% cholesterol feed for 8 weeks. Microsomes were prepared from the thoracoaorta of the rabbits in an ordinary manner, and suspended in 0.15 M phosphate buffer (pH 7.4) to prepare blood vessel wall-derived enzyme liquids, Small intestine-derived enzyme liquids were prepared from the small intestines of rabbits fed with ordinary feed. […] 10 μl of the enzyme liquid was added to the resulting solution and reacted at 37° C. for 5 minutes (for small intestine-derived enzyme liquids, for 3 minutes), and thereafter 3 ml of chloroform/methanol (2/1) and 0.5 ml of 0.04 N HCl were added thereto to stop the reaction. After the reaction, lipids were extracted from the reaction mixtures. The solvent layer was concentrated to dryness, then dissolved in hexane, spotted on a TLC plate (produced by Merck), and developed thereon with a developer of hexane/ether/acetic acid (75/25/1) The radioactivity of the thus-fractionated cholesterol ester fraction was measured with BAS2000 (produced by Fuji Film).

[2] = target: T1, ACAT (small intestine-derived enzyme) (Oryctolagus cuniculus, UniProt G1SFD9); assay: ACAT inhibiting activity, small intestine-derived enzyme liquid; type: biochemical, rabbit; details: small intestines of rabbits fed ordinary feed; 14C-oleoyl-CoA; 37° C. 3 minutes
T1 sequence (G1SFD9 1-524): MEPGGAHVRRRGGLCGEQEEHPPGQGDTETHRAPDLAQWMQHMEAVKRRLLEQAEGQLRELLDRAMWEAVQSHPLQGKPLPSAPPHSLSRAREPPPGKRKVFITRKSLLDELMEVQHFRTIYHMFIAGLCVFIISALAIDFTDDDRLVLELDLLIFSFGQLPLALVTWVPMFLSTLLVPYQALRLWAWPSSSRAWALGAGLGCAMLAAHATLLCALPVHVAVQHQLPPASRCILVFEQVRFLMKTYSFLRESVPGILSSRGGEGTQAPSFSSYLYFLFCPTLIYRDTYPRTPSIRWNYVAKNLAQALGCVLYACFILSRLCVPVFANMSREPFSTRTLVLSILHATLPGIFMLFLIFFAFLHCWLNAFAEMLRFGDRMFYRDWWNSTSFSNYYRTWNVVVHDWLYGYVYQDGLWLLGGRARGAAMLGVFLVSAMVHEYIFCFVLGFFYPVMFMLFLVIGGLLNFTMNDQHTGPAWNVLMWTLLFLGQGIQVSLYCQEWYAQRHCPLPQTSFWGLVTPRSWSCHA
Experimental: as §1

[3] = target: T2, ACAT in J774 cell (Mus musculus, UniProt Q61263); assay: ACAT inhibiting activity in J774 cell (anti-foaming activity); type: cell-based; details: for IC50: J774 cell, 10 μg/ml 25-OH cholesterol, 18 hours, cholesterol ester per protein, read-out: J 774 Cell-Derived Enzyme IC50; for IC50 (HepG 2)/IC50 (J 774): ratio of the two cell IC50 values
T2 construct: endogenous in cells; host or cells: J774 cells
T2 sequence (Q61263 1-540): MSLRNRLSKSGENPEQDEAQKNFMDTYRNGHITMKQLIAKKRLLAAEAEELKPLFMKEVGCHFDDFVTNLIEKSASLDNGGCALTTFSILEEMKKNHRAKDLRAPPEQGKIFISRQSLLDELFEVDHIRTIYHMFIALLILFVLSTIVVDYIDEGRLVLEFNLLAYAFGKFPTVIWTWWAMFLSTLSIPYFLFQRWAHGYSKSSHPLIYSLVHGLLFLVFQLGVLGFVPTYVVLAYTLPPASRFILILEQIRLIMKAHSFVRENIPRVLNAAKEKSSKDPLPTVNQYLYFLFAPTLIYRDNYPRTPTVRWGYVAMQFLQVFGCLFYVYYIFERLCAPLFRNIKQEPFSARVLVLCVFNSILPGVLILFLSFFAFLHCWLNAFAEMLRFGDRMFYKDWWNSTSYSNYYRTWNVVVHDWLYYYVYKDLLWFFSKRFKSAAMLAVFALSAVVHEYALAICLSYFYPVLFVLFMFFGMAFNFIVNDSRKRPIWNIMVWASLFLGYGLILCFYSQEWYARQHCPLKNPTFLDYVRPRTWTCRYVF
Experimental: (§2) ACAT inhibiting activities in J774 cell and HepG2 cell (Anti-foaming activities).
(§3) J774 cell and HepG2 cell were sown on 24-holes-plates, and J774 cell was cultured with DMEM culturing solution (including 10% fetal bovine serum) and HepG2 cell was cultured with MEM culturing solution (including 10% fatal bovine serum) and they were incubated with 5% CO2 at 37° C. for 24 hours. […] After redwing the medium, each cultured cell was washed with PBS two ties, and then extracted with 1.5 ml of hexane:iso-propanol (3:2), and concentrated and dried. Each extracted substance was dissolved into iso-propanol including 0.2 ml of 10% Triton X-100. And total cholesterol (TC) of each was measured with Cholesterol E Test Wako (Wako Junyaku Co.), and free cholesterol […] of each was measured with Free Cholesterol E Test Wako (Wako Junyaku Co.). The residue of extracting was dissolved with 0.25 ml of 2N NaOH at 37° C. for 30 minutes, and an amount of protein was measured with BCA Protein Assay Reagent (Pierce). The amount of cholesterol ester per protein was calculated based on a difference between TC and FC, and IC50 was calculated in contrast with control.

[4] = tested on: ACAT in HepG2 cell; assay: ACAT inhibiting activity in HepG2 cell; type: cell-based; details: 10 μg/ml 25-OH cholesterol, 18 hours, cholesterol ester per protein, read-out: HepG 2-Derived Enzyme IC50
Experimental: as §2, §3

[5] = Deterioration action of cholesterol in plasma, F1B hamster on hyperfat foods; type: in vivo, BIO F1B hybrid syrian hamster; details: for inhibiting an increase (%): 4th week, against hyperfat and ordinal foods groups; for Total Cholestrol in Plasma, At the 4th Week: fed 4 weeks
Experimental: A deterioration action of cholesterol in plasma was tested with BIO F1B hybrid syrian hamster (Mark C. K. et al., Atheorosclerosis, 91 (1991) 35-49: abbreviated as FIB hamster in the following) which has an accumulation of Cholesterol in blood vessel by cholesterol load. That is 4 groups of FIB hamster (male, 8 weeks old, about 100 g weight) were made, which had five hamsters respectively, and the hamsters were fed with the below-described feeds corresponding to each group for 4 weeks. At the 4th week from beginning feed, blood of the hamsters were drawn from their jugulars; and values of total cholesterols in plasma were measured with the enzyme method.

[6] = group (3): 0.03% compound added to hyperfat foods
[7] = group (4): 0.3% compound added to hyperfat foods

Sequence of ACAT (blood vessel wall-derived enzyme) (G1SUQ0 entry or part of it): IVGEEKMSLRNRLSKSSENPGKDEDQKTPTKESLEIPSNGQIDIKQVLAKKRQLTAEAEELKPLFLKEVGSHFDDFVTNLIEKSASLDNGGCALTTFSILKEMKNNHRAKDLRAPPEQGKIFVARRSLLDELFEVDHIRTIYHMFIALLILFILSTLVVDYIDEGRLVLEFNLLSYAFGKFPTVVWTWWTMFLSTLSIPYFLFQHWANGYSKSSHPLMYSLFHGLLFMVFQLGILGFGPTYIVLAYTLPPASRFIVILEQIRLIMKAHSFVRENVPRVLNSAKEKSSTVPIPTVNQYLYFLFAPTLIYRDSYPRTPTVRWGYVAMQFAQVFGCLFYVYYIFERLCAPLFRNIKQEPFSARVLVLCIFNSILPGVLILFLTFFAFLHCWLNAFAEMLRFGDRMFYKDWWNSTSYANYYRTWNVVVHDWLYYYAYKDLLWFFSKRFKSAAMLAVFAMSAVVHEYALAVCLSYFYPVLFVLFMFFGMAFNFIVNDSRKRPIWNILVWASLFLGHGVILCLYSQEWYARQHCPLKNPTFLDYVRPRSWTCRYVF

| SMILES | IC50 [2] | IC50 [3] | IC50 [4] | IC50 (HepG 2)/IC50 (J 774) [3] | other results |
| --- | --- | --- | --- | --- | --- |
| CCCCCCCCCCCCCCSCC(=O)Nc1c(C(C)C)cccc1C(C)C [Control (2), N-(2,6-diisopropylphenyl) -2-(tetradecylthio)acetamide, reference compound] |  | 150 nM | 1400 nM |  |  |
| CC(C)c1cccc(C(C)C)c1NC(=O)CSc1nc2ccccc2[nH]1 [Example 23, 2-(benzimidazol-2-ylthio)-N-(2,6-diisopropylphenyl)acetamide] |  | 2200 nM | 12000 nM | 6.45 |  |
| CC(C)c1cccc(C(C)C)c1NC(=O)CCCSc1nc2ccccc2s1 [Example 44, 4-(benzothiazol-2-ylthio)-N-(2,6-diisopropylphenyl)butanamide] |  | 5600 nM | 2100 nM | 0.38 |  |
| CC(C)c1cccc(C(C)C)c1NC(=O)CCCCCCCCSc1nc2ccccc2o1 [Example 8, 9-(benzoxazol-2-ylthio)-N-(2,6-diisopropylphenyl)nonanamide] |  |  |  |  | inhibiting an increase (%) [5, 6]: 80.5%; Total Cholestrol in Plasma, Before Dosage [5, 6]: 155.5 ± 10.1 mg/dL; Total Cholestrol in Plasma, At the 4th Week [5, 6]: 398.3 ± 64.3 mg/dL; inhibiting an increase (%) [5, 7]: 111.7%; Total Cholestrol in Plasma, Before Dosage [5, 7]: 164.3 ± 8.8 mg/dL; Total Cholestrol in Plasma, At the 4th Week [5, 7]: 170.1 ± 18.5 mg/dL |
| CCCCCCCN(CCCCCSc1nc(-c2ccccc2)c(-c2ccccc2)[nH]1)c1nc2ccccc2o1 [Control (4), N4-[5-(4,5-diphenyl-1H-imidazol-2-ylthio)pentyl]-N-heptyl-2-benzoxazolamine, reference compound] | 37 nM | 120 nM |  | 6.26 | IC50 [1]: 26 nM |
| CC(C)c1cccc(C(C)C)c1NC(=O)C(C)(C)CCCOc1ccc2c(c1)C=C(c1nccn1C)C(CCc1ccc(F)cc1)O2 (stereo not shown) [Control (1), 5-[2-(2-(4-fluorophenyl)ethyl)-3-(1-methyl-1H-imidazol-2-yl) -2H-benzopyran-6-yl]oxy-2,2-dimethyl-N-(2,6-diisopropylphenyl)pentanamide, reference compound] | 870 nM |  |  | 9.46 |  |

The next lines start with results.

| IC50 [2] | IC50 [3] | IC50 [4] | IC50 (HepG 2)/IC50 (J 774) [3] | SMILES | other results |
| --- | --- | --- | --- | --- | --- |
| 65 nM |  |  |  | CC(C)c1cccc(C(C)C)c1NC(=O)CCCCCSc1nc2ccccc2o1 [Example 5, 6-(benzoxazol-2-ylthio)-N-(2,6-diisopropylphenyl)hexanamide] | IC50 [1]: 10 nM |
|  | 1200 nM | 1000 nM | 0.83 | CC(C)c1cccc(C(C)C)c1NC(=O)CSc1nc2ccccc2o1 [Example 1, 2-(benzoxazol-2-ylthio)-N-(2,6-diisopropylphenyl)acetamide] |  |
|  | 470 nM | 1200 nM | 2.55 | CC(C)c1cccc(C(C)C)c1NC(=O)CCSc1nc2ccccc2o1 [Example 2, 3-(benzoxazol-2-ylthio)-N-(2,6-diisopropylphenyl)propanamide] |  |
